Assays:
[1] = tested on: MDMBA-231 breast cancer cell line; assay: MTT antiproliferative assay, MDMBA-231; type: cell-based; settings: 10 µM, 24 h
Description: (§1) At least, three independent experiments were performed.

[2] = tested on: MCF-7 breast cancer cell line; assay: MTT antiproliferative assay, MCF-7; type: cell-based; settings: 10 µM, 24 h
Description: as §1

[3] = tested on: HeLa cervical cancer cell line; assay: MTT antiproliferative assay, HeLa; type: cell-based; settings: 10 µM, 24 h
Description: as §1

FRK = target: T1, FRK (Homo sapiens, UniProt P42685); assay: Z`-LYTE kinase profiling, FRK; type: biochemical
T1 construct: purchased Invitrogen/Life Technologies

IGF-1R = target: T2, IGF-1R (Homo sapiens, UniProt P08069); assay: Z`-LYTE kinase profiling, IGF-1R; type: biochemical
T2 construct: purchased Invitrogen/Life Technologies

BTK = target: T3, BTK (Homo sapiens, UniProt Q06187); assay: Z`-LYTE kinase profiling, BTK; type: biochemical
T3 construct: purchased Invitrogen/Life Technologies

c-Src = target: T4, c-Src (Homo sapiens, UniProt P12931); assay: Z`-LYTE kinase profiling, c-Src; type: biochemical
T4 construct: purchased Invitrogen/Life Technologies

VEGFR-1 = target: T5, VEGFR-1 (Homo sapiens, UniProt P17948); assay: Z`-LYTE kinase profiling, VEGFR-1; type: biochemical
T5 construct: purchased Invitrogen/Life Technologies

VEGFR-2 = target: T6, VEGFR-2 (Homo sapiens, UniProt P35968); assay: Z`-LYTE kinase profiling, VEGFR-2; type: biochemical
T6 construct: purchased Invitrogen/Life Technologies

HER-2 = target: T7, HER-2 (Homo sapiens, UniProt P04626); assay: Z`-LYTE kinase profiling, HER-2; type: biochemical
T7 construct: purchased Invitrogen/Life Technologies

[4] = tested on: DLD-1 colorectal cancer cell line; assay: MTT antiproliferative assay, DLD-1; settings: for GI% DLD1: 10 µM, 24 h, MTT; for IC50: Homo sapiens, DLD-1, 24 h, read-out: IC50 DLD1 (half maximal growth inhibitory concentration)
Description: (§2) After the incubation of the tested compounds for 24 h, the percent growth inhibition (GI%) was calculated.
(§3) Cells were seeded at 1 × 10^4 cells/well and cultured overnight in a 96-well plate. […] Then, 150 µl DMSO was used to solubilise MTT formazan crystals. Finally, the plates were shaken, and the optical density was determined at 570 nm using ELISA plate reader. At least, three independent experiments were performed. Percentage of growth inhibition was determined as (1-[OD of treated cells/OD of control cells]). […] The IC50 values were calculated using Prism v0.8 software (GraphPad Software Inc., La Jolla, CA).

[5] = tested on: HCT-116 colorectal cancer cell line; assay: MTT antiproliferative assay, HCT-116; settings: for GI% HCT-116: 10 µM, 24 h, MTT; for IC50: Homo sapiens, HCT-116, 24 h, read-out: IC50 HCT-116 (half maximal growth inhibitory concentration)
Description: as §2, §3

FAK = FAK (Homo sapiens, UniProt Q05397); assay: Z`-LYTE kinase inhibitory assay, FAK
EGFR = EGFR (Homo sapiens, UniProt P00533); assay: Z`-LYTE kinase inhibitory assay, EGFR
recombinant human TOP1 = target: T8, recombinant human TOP1 (Homo sapiens, UniProt P11387); assay: Topoisomerase I-mediated DNA cleavage assay; settings: tested at 0.1, 1, 10, 100 µM
T8 sequence (P11387 1-765): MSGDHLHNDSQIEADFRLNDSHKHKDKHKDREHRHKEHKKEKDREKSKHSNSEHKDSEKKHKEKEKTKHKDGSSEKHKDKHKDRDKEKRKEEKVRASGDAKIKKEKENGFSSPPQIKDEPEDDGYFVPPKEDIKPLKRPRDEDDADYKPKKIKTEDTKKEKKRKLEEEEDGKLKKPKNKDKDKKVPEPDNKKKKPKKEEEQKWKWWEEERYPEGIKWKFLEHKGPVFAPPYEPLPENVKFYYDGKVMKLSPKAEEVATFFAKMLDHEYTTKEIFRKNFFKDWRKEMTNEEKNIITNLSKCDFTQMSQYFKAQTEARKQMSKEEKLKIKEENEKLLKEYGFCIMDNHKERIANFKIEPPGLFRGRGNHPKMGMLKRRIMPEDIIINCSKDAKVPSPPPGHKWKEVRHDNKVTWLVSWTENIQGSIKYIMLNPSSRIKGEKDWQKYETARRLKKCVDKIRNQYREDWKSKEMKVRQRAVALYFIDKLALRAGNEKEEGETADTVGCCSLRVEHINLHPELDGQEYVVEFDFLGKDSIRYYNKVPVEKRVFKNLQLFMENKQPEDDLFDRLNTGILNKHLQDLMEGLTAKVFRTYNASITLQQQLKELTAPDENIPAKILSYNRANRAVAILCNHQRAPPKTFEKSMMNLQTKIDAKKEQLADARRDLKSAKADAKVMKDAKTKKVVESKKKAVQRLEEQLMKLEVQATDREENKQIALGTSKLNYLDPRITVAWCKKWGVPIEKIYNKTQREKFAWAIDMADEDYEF
Description: Radiolabeled DNA was incubated with recombinant human TOP1 in 20 µL reaction buffer (10 mmol/L Tris-HCl, pH 7.5, 50 mmol/L KCl, 5 mmol/L MgCl2, 0.1 mmol/L EDTA, and 15 µg/mL BSA) at 30 °C for 20 min in the presence of the indicated drug concentrations. Reactions were terminated by adding SDS (0.5% final concentration) followed by the addition of two volumes of loading dye (80% formamide, 10 mmol/L sodium hydroxide, 1 mmol/L sodium EDTA, 0.1% xylene cyanol, and 0.1% bromophenol blue). Aliquots of reaction mixtures were subjected to 20% denaturing PAGE. Gels were dried and visualised by using PhosphorImager and Image Quant software (Molecular Dynamics).

T7 sequence (P04626 23-1255): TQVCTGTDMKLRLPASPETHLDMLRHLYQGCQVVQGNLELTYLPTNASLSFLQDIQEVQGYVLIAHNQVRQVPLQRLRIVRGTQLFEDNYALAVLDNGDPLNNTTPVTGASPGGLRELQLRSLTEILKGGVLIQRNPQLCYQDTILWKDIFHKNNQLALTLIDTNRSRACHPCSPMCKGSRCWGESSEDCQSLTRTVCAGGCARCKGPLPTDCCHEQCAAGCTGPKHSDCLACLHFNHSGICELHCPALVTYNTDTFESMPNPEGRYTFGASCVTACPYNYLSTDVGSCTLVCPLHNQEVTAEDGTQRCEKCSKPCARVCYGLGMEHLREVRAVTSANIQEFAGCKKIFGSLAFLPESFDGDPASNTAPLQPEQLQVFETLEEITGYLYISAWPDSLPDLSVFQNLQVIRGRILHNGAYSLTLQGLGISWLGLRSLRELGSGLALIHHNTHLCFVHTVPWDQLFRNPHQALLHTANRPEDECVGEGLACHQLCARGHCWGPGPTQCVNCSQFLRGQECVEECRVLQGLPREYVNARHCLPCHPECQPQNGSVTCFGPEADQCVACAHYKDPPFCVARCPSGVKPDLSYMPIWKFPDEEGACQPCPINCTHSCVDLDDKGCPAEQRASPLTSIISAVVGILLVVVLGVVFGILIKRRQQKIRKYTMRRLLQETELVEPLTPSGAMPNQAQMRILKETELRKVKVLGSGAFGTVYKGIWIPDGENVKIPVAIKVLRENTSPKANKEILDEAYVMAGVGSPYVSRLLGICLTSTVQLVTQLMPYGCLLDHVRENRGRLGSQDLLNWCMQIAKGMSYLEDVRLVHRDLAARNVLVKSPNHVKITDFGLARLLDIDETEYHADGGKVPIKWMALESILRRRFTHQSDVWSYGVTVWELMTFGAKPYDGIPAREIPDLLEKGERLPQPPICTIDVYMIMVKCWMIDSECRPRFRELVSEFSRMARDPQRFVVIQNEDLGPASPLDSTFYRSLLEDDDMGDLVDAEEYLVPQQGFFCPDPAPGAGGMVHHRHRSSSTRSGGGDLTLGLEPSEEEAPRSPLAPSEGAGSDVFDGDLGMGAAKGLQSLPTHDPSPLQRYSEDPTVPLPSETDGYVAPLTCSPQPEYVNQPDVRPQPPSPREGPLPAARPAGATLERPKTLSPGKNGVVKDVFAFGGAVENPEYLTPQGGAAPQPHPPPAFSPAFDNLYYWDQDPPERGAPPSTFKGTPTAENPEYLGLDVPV
T4 sequence (P12931 whole entry): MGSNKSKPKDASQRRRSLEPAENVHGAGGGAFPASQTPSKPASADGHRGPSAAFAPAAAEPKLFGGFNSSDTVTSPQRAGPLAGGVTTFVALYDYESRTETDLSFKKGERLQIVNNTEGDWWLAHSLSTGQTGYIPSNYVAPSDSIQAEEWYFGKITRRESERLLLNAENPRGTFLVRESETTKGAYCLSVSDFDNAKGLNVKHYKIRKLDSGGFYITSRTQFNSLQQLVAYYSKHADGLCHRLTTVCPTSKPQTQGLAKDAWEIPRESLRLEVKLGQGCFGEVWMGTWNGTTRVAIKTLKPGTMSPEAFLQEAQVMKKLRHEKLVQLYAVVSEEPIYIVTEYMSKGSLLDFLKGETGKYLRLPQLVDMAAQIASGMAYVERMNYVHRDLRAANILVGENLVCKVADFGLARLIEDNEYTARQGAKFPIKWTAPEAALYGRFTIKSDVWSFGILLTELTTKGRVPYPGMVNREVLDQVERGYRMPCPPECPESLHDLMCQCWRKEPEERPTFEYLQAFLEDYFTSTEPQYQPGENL
T3 sequence (Q06187 whole entry): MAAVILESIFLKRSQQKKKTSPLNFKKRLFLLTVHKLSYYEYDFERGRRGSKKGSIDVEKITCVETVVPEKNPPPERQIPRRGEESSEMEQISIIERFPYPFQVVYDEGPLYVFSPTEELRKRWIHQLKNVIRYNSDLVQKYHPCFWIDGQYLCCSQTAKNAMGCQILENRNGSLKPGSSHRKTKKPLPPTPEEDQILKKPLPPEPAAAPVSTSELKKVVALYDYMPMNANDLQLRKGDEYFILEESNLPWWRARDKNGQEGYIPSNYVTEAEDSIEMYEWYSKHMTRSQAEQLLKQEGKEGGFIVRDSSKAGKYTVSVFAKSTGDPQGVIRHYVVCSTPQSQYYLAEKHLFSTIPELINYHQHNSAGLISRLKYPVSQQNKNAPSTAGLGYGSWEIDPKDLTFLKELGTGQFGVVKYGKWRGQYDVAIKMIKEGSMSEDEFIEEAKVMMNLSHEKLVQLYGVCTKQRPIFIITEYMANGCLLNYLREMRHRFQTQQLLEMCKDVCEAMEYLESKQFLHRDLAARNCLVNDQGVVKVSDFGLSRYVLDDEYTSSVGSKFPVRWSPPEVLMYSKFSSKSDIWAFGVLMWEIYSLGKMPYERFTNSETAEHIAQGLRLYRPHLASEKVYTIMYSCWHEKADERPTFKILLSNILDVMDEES
T5 sequence (P17948 27-1338): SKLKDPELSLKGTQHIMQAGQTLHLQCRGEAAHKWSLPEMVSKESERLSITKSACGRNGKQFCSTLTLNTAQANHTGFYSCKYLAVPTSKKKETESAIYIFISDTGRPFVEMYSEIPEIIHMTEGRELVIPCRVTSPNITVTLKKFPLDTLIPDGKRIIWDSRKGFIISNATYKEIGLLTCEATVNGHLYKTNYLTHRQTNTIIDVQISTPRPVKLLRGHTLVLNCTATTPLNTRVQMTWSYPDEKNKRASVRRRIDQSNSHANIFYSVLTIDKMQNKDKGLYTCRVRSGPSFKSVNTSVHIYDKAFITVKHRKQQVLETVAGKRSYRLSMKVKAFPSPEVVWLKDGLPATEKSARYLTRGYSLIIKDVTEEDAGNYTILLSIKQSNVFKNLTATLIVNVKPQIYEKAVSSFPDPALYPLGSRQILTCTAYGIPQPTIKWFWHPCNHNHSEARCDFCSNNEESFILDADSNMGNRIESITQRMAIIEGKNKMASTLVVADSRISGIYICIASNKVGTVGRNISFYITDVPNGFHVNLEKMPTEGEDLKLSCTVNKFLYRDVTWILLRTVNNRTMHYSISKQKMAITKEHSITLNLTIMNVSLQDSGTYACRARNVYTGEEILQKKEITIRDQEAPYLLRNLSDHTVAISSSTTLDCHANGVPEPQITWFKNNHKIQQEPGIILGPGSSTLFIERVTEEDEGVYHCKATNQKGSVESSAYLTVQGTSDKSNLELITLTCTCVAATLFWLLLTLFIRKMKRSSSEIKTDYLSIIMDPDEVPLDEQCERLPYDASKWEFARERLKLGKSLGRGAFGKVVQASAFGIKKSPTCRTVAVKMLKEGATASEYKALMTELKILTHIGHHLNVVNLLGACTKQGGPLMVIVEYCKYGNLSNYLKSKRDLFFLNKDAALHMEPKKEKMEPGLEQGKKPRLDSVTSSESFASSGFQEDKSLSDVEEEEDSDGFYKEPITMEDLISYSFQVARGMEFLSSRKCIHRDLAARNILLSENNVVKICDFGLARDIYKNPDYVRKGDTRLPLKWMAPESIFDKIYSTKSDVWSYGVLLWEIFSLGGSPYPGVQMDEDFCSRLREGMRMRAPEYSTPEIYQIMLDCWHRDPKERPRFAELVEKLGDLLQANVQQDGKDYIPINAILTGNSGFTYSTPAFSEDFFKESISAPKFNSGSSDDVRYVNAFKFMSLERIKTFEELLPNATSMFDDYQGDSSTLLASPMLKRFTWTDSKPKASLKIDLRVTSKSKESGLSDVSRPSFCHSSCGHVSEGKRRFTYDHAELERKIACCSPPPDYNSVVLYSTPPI
FAK, sequence (Q05397 whole entry): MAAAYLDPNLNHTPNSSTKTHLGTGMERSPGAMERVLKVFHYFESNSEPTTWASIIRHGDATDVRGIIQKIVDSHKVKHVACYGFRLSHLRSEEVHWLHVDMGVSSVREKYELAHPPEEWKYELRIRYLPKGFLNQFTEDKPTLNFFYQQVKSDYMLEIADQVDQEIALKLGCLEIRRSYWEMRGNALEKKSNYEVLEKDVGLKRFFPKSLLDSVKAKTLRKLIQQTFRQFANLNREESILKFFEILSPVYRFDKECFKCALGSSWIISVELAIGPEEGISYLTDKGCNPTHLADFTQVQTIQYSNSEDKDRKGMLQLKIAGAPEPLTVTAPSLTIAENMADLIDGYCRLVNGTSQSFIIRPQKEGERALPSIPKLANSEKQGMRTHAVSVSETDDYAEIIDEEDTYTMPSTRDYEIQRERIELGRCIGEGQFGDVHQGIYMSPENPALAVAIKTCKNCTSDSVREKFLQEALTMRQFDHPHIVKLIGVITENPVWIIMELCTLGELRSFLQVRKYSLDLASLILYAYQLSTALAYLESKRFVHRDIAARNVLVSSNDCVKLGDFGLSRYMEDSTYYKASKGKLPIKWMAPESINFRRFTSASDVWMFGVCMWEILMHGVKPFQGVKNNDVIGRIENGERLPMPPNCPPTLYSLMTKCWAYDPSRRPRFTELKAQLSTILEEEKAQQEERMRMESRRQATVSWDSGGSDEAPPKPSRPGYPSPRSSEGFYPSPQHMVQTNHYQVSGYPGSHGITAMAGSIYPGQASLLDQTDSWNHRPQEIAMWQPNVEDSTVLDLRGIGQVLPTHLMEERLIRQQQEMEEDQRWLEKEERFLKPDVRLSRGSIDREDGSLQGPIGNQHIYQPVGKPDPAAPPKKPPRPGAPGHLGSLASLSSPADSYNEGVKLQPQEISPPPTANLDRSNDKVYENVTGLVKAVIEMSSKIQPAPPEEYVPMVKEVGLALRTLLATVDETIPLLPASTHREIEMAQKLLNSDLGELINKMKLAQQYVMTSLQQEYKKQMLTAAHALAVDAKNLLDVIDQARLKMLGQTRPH

Compound	IC50 (FRK) [µM]	IC50 (IGF-1R) [µM]	IC50 (BTK) [µM]	IC50 (c-Src) [µM]	IC50 (VEGFR-1) [µM]	IC50 (VEGFR-2) [µM]	IC50 (HER-2) [µM]	melting point [°C]	IC50 [4] [µM]	IC50 [5] [µM]	IC50 (FAK) [µM]	IC50 (EGFR) [µM]	TOP1 inhibitory activity (semiquantitative score relative to 1 µM CPT) (recombinant human TOP1)	fold decreased activity than Gefitinib, EGFR (EGFR; from IC50 values) [fold]	GI% MDMBA-231 [1] [%]	GI% MCF-7 [2] [%]	GI% Hela [3] [%]	GI% DLD1 [4] [%]	GI% HCT-116 [5] [%]
COc1cc2nc(-c3ccc(C)cc3)cc(OCCCNC3CCN(C)CC3)c2cc1OC [6m, N-(3-((6,7-dimethoxy-2-(p-tolyl)quinolin-4-yl)oxy)propyl)-1-methylpiperidin-4-amine]	2.76	2.81	2.46	0.98	0.865	2.83	0.332	66 to 68	54.2 ± 2.11	43.1 ± 1.05	0.172 ± 0.0137	0.154 ± 0.0128	−/+ (−/+: 0–25% 1 µM CPT)	–	8.16	22.09	30.19	22.16	24.31
COc1cc2nc(-c3ccc(C)cc3)cc(OCCCNCC3CCCO3)c2cc1OC (stereo not shown) [6n, 3-((6,7-dimethoxy-2-(p-tolyl)quinolin-4-yl)oxy)-N-((tetrahydrofuran-2-yl)methyl)propa-n-1-amine]	2.52	2.81	0.819	0.0827	0.556	1.19	1.39	60 to 62	6.11 ± 1.8	8.69 ± 0.94	0.0444 ± 0.00294	0.0418 ± 0.00234	0	–	14.39	58.15	71.12	81.34	64.26
COc1cc2nc(-c3ccc(C)cc3)cc(OCCCn3ccnc3)c2cc1OC [6o, 4-(3-(1H-imidazol-1-yl)propoxy)-6,7-dimethoxy-2-(p-tolyl)quinoline]	0.786	0.408	3.83	3.49	0.511	3.62	1.38	203 to 205	> 100	> 100	0.205 ± 0.00804	0.256 ± 0.00694	0	–	8.64	5.36	9.16	12.36	1.08
COc1cc2nc(-c3ccc(-c4ccco4)cc3)cc(OCCCN3CCN(C)CC3)c2cc1OC [8a, 2-(4-(furan-2-yl)phenyl)-6,7-dimethoxy-4-(3-(4-methylpiperazin-1-yl)propoxy)quinoline]	0.846	1.06	5.6	4.54	0.648	6.37	0.989	135 to 137	> 100	> 100	0.198 ± 0.0123	0.349 ± 0.014	0	–	4.40	7.22	11.78	5.15	1.02
COc1cc2nc(-c3ccc(-c4cccs4)cc3)cc(OCCCN3CCN(C)CC3)c2cc1OC [8b, 6,7-dimethoxy-4–(3-(4-methylpiperazin-1-yl)propoxy)-2–(4-(thiophen-2-yl)phenyl)quinol-ine]	3.92	3.9	2.92	7.2	6.96	8.37	1.07	155 to 157	7.34 ± 1.22	9.84 ± 0.68	0.0298 ± 0.00237	0.0355 ± 0.0015	0	–	36.87	74.90	50.81	74.25	52.10

Now from value to compound, other results behind:

IC50 (FRK) [µM]	IC50 (IGF-1R) [µM]	IC50 (BTK) [µM]	IC50 (c-Src) [µM]	IC50 (VEGFR-1) [µM]	IC50 (VEGFR-2) [µM]	IC50 (HER-2) [µM]	melting point [°C]	IC50 [4] [µM]	IC50 [5] [µM]	IC50 (FAK) [µM]	IC50 (EGFR) [µM]	TOP1 inhibitory activity (semiquantitative score relative to 1 µM CPT) (recombinant human TOP1)	fold decreased activity than Gefitinib, EGFR (EGFR; from IC50 values) [fold]	Compound	GI% MDMBA-231 [1] [%]	GI% MCF-7 [2] [%]	GI% Hela [3] [%]	GI% DLD1 [4] [%]	GI% HCT-116 [5] [%]
8.91	0.198	4.76	1.03	4.39	8.55	1.02	110 to 112	> 100	> 100	0.2987 ± 0.00194	0.244 ± 0.00841	0	–	CN1CCN(CCCOc2cc(-c3ccc(C(F)(F)F)cc3)nc3ccccc23)CC1 [10a, 4-(3-(4-methylpiperazin-1-yl)propoxy)-2-(4-(trifluoromethyl)phenyl)quinoline]	37.15	14.26	25.64	22.51	18.64
4.37	5.74	2.98	7.78	8.51	8.68	0.598	68 to 70	40.3 ± 2.09	> 100	0.165 ± 0.00537	0.18 ± 0.00912	0	–	FC(F)(F)c1ccc(-c2cc(OCCCNC3CCCCC3)c3ccccc3n2)cc1 [10b, N-(3-((2-(4-(trifluoromethyl)phenyl)quinolin-4-yl)oxy)propyl)cyclohexanamine]	45.35	64.81	55.49	35.72	24.10
0.734	5.37	0.196	0.0553	1.76	0.0483	0.0348	146 to 148	> 100	> 100	0.225 ± 0.014	0.125 ± 0.00794	−/+ (−/+: 0–25% 1 µM CPT)	–	Clc1ccc(-c2cc(OCCCn3ccnc3)c3cc4c(cc3n2)OCO4)cc1 [12a, 8-(3-(1H-imidazol-1-yl)propoxy)-6-(4-chlorophenyl)-[1,3] dioxolo[4,5-g]quinoline]	4.98	11.72	22.79	21.25	16.25
1.13	7.16	0.213	0.0423	5.99	0.027	0.0273	153 to 155	8.36 ± 1.08	14.4 ± 3.69	0.0709 ± 0.00316	0.0954 ± 0.00205	−/+ (−/+: 0–25% 1 µM CPT)	2	Clc1ccc(-c2cc(OCCCN3CCOCC3)c3cc4c(cc3n2)OCO4)cc1 [12b, 6-(4-chlorophenyl)-8-(3-morpholinopropoxy)-[1,3]dioxolo [4,5-g]quinoline]	14.28	64.38	25.39	72.95	31.28
4.88	9	0.0995	0.119	7.72	0.0569	0.169	125 to 127	9.12 ± 2.11	6.37 ± 1.09	0.111 ± 0.00894	0.247 ± 0.0123	0	–	FC(F)(F)c1ccc(-c2cc(OCCCn3ccnc3)c3cc4c(cc3n2)OCO4)cc1 [12c, 8-(3-(1H-imidazol-1-yl)propoxy)-6-(4-(trifluoromethyl)phenyl)-[1,3]dioxolo[4,5-g]qui-noline]	61.94	43.27	68.22	71.94	80.49

Reference: PMC8725837, “2-Arylquinolines as novel anticancer agents with dual EGFR/FAK kinase inhibitory activity: synthesis, biological evaluation, and molecular modelling insights” (Journal of Enzyme Inhibition and Medicinal Chemistry, 2021)
